# Measurements taken from US9717806B2, “Method for detecting cancer using ICG fluorescence method” (Osaka Prefectural Hospital Organization, priority 2008, dated 2017).
# Columns and labels:
# Format in all cases: in vivo, human
# hepatocellular carcinoma [1] = assay: Intraoperative ICG fluorescence detection of accessory lesions with infrared camera system PDE, primary liver cancer; conditions: for confirmation of HCC areas by intraoperative PDE diagnosis: identification of main tumor by intraoperative ultrasonography was difficult
# Procedure: (§1) Now the method of detecting an accessory cancer lesion using the accessory cancer lesion detector illustrated in FIG. 1 is described. First, the fluorescent dye indocyanine green is injected intravenously. After the lapse of a certain time (typically 1 to 10 days from the intravenous injection), when excitation light 10 of a certain wavelength (760 nm for instance) is irradiated on the target organ 20 from the excitation light source unit 2, a fluorescence image 11 in the near-infrared wavelength band is emitted by the accessory cancer lesion because of the indocyanine green. Here, the optical filter 3 allows the passage of the fluorescence image 11 while cutting off the reflected light coming from the target organ 20 that is being irradiated by the excitation light 10.
# The fluorescence image 11 that passes through the optical filter 3 is captured by the CCD camera used as the imager 4, and the data of the observed image is output from the CCD camera to the controller 5. The controller 5 controls the brightness and contrast of the observed image coming from the imager 4. As a result, the observed image 15 (which includes the image of the main cancer lesion) containing the accessory cancer lesion image 16 is generated. […] Furthermore, if necessary, the observed image 15 is recorded on a recording medium in the image recorder 7.
# (§2) In the examples 1 to 5 given below, the ICG (0.5 mg/kg) was injected intravenously a few days before the surgery. In other words, in the examples 1, 2, 3, 4, and 5, the intravenous ICG injection was administered, respectively, 4, 4, 8, 1, and 4 days before the surgery. […] In examples 1 to 4, the cancer was primary liver cancer, and in Example 5 it was metastatic liver cancer.
# hepatocellular carcinoma [2] = assay: PDE observation of cross-sections of resected, formalin-fixed liver slices after ICG injection; conditions: Example 4, ICG 0.5 mg/kg intravenously 1 day before surgery, 3 mm thick slices, areas diagnosed as highly differentiated HCC
# Procedure: as §2
# Example 4 was a case of a person. Preoperative contrast CT detected the presence of a single HCC, 25 mm in diameter, in the S5 segment of the liver. FIG. 6A is an image showing the result of contrast CT. The arrow indicates the HCC. […] FIG. 6B is a near-infrared fluorescence intensity distribution image (measured after the abdomen was opened but before the resection) from ICG in the liver. The fluorescent area indicated by the arrow at left is the main tumor area (main lesion), and the two arrows (arrowheads) on the right indicate fluorescent areas (accessory lesions), 3 mm in diameter, observed around the main tumor. Based on the above measurements, more than one fluorescent area (accessory lesions), each 3 mm in diameter, were resected in addition to the main tumor (main lesion). Further, the resected liver was fixed in formalin and made into 3 mm thick slices (FIG. 6C and FIG. 6G), and the cross-sections observed with the PDE (FIG. 6D and FIG. 6H). […]
# metastatic liver cancer = assay: Intraoperative ICG fluorescence detection of accessory lesions with infrared camera system PDE, metastatic liver cancer; conditions: Example 5, person; ICG 0.5 mg/kg intravenously 4 days before surgery; S4 segment of the liver; histology: adenocarcinoma, metastasis of colon cancer into the liver
# Procedure: as §1
# The fluorescence image 11 that passes through the optical filter 3 is captured by the CCD camera used as the imager 4, and the data of the observed image is output from the CCD camera to the controller 5. The controller 5 controls the brightness and contrast of the observed image coming from the imager 4. As a result, the observed image 15 (which includes the image of the main cancer lesion) containing the accessory cancer lesion image 16 is generated. […] Furthermore, if necessary, the observed image 15 is recorded on a recording medium in the image recorder 7. […]
smiles,measurement,setting,value
"CC1(C)C(/C=C/C=C/C=C/C=C2\N(CCCCS(=O)(=O)O)c3ccc4ccccc4c3C2(C)C)=[N+](CCCCS(=O)(=O)[O-])c2ccc3ccccc3c21 [ICG, indocyanine green]",diameter of fluorescent area (accessory lesion) detected in addition to the main tumor,"hepatocellular carcinoma [1]; Example 1, person, ICG 0.5 mg/kg intravenously 4 days before surgery, S4 segment of the liver, not detected by contrast CT, histology: highly differentiated HCC",5 mm
same,diameter of fluorescent area (accessory lesion),"hepatocellular carcinoma [1]; Example 3, person, ICG 0.5 mg/kg intravenously 8 days before surgery, S5 segment of the liver, histology: slightly less differentiated HCC than the main tumor",5 mm
same,confirmation of HCC areas by intraoperative PDE diagnosis,"hepatocellular carcinoma [1]; Example 3, ICG 0.5 mg/kg intravenously 8 days before surgery",could confirm the HCC areas (main and accessory lesions) as fluorescent areas
same,diameter of fluorescent areas (accessory lesions) observed around the main tumor,"hepatocellular carcinoma [1]; Example 4, person, ICG 0.5 mg/kg intravenously 1 day before surgery, histology: highly differentiated HCC",3 mm
same,confirmation of HCC areas by intraoperative PDE diagnosis,"hepatocellular carcinoma [1]; Example 4, ICG 0.5 mg/kg intravenously 1 day before surgery",could confirm the HCC areas (main and accessory lesions) as fluorescent areas
same,near-infrared fluorescence in cross-sections of resected liver,hepatocellular carcinoma [2],light emission from areas where no nodule was detected macroscopically
same,diameter of fluorescent area (accessory lesion) detected apart from the two lesions identified before the surgery,metastatic liver cancer,5 mm
